A word on the EC50: it is the midpoint of the concentration-response curve.

Each structure is given as a SMILES string. Like-named read-outs stand apart in the source and are kept apart here.

One data set can be described thus: MTT viability assay. Format: cell-based. Particulars: human, RPMI-8226 lymphoblasts, RPMI-8226 cells, read-out: EC50 cytotoxicity (MTT viability). The procedure: (§1) RPMI-8226 lymphoblasts (ATTC #CCL-155) were used to assess the cytotoxicity of tested compounds. […] Dilution series of tested inhibitors were prepared as 10x stock solutions in PBS and 10 μL was added to cells and incubated under a 5% CO2 atmosphere at 37 °C, for 2 days. Following incubation, 10 μL of MTT reagent (3-(4,5-dimethylthiazol-2-yl)-2,5-diphenyltetrazolium bromide, 5 mg/mL in PBS, Sigma Aldrich) was added to each well and incubated for 90 min, 37 °C, 5% CO2. […]
For orientation: Tetrazolium dyes change colour on reduction, which living cells bring about.

The target of data set [1] is T1, HDAC1 (Homo sapiens, UniProt Q13547).
T1 construct: HDAC1 1-482 Addgene; Strep-FLAG-HALO (N); made in house; host or cells: HEK293/T17
Put plainly: In vitro deacetylation assay, HDAC1 (RHKK substrate). Format: biochemical. Conditions: for IC50: purified human HDAC1, RHK[AcK]-AMC (RHKK) substrate.

The target in a further data set is T2, HDAC10 (Homo sapiens, UniProt Q969S8).
T2 construct: HDAC10 1 – 667 Open Biosystems; Strep-FLAG-HALO (N); made in house; host or cells: HEK293/T17
T2 sequence (Q969S8 1-667): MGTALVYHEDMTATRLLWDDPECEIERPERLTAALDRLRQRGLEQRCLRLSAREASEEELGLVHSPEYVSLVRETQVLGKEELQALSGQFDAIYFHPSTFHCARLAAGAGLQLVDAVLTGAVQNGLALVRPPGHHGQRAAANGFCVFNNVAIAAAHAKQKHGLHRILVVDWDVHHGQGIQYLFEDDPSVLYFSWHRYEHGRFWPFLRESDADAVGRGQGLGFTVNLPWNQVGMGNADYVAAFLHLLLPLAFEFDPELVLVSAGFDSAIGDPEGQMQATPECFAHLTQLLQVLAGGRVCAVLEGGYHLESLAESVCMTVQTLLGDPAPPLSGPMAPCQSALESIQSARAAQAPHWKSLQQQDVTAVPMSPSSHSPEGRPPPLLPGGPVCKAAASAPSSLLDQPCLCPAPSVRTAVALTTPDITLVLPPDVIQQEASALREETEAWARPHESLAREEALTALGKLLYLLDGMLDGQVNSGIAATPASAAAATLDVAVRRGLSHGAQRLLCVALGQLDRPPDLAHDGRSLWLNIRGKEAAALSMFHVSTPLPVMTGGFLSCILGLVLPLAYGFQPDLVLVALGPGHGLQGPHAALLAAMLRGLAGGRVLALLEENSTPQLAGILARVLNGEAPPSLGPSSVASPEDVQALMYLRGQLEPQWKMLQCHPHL
The experiment in a line: In vitro deacetylation assay, HDAC10 (fluorescein-labeled N8-acetylspermidine, RP-HPLC). Format: biochemical.

The target of data set [2] is T1, HDAC1. Put plainly: In vitro deacetylation assay, HDAC1 (GAK substrate). Format: biochemical. Particulars: for IC50: purified human HDAC1, GAK substrate 10 µM.
The target of another data set is T3, HDAC6 (Homo sapiens, UniProt Q9UBN7).
T3 construct: HDAC6 2-1215 Open Biosystems; Strep-FLAG-HALO (N); made in house; host or cells: HEK293/T17
T3 sequence (Q9UBN7 2-1215): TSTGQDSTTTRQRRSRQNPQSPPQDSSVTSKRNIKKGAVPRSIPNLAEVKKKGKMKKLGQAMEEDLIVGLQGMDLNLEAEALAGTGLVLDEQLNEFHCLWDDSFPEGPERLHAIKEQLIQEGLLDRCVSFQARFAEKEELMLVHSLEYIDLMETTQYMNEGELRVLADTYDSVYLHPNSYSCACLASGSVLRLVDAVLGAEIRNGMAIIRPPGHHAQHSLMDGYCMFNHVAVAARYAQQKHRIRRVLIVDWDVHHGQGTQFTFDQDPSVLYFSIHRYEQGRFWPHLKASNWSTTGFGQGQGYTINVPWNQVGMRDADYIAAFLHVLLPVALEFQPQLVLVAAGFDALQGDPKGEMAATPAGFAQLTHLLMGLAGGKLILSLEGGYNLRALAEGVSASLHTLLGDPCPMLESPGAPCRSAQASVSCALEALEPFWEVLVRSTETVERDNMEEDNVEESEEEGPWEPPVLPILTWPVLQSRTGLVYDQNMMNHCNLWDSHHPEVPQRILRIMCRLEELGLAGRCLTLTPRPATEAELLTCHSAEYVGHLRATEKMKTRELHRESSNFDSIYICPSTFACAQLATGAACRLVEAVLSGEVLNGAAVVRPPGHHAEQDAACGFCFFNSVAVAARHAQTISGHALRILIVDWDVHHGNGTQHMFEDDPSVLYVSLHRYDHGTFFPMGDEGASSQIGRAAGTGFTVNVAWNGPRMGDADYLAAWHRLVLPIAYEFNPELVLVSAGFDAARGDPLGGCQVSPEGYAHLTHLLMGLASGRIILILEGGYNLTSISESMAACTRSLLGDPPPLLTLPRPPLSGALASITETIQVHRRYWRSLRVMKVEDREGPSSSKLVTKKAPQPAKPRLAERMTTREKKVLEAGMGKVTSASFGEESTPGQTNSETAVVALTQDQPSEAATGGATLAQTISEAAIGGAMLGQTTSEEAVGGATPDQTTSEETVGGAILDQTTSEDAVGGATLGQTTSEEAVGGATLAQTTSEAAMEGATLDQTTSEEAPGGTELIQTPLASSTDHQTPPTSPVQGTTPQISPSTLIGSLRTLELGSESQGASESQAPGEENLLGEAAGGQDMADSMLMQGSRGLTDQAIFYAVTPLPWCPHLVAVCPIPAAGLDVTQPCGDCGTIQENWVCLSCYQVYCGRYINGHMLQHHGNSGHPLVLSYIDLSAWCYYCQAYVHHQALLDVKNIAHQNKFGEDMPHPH
The experiment in a line: In vitro deacetylation assay, HDAC6 (GAK substrate). It counts as biochemical. Particulars: purified human HDAC6, Ac-GAK-Ac-AMC (GAK) substrate 10 µM.

The target of a further data set is HDAC1-nanoLuc (Homo sapiens, UniProt Q13547). Put plainly: nanoBRET target engagement assay, HDAC1. Format: cell-based. Conditions: HEK293T/17 cells stably expressing HDAC1-nanoLuc, 2 h. In general terms: In BRET a luciferase serves as donor, and the signal depends on an acceptor being close.
In a further data set the test system is RPMI-8226 lymphoblasts. The experiment in a line: MTT viability assay. It counts as cell-based. Particulars: RPMI-8226 cells, 48 h; for EC50: read-out: EC50 cytotoxicity (MTT viability). The procedure:
as §1

For the next data set, the system named is tubulin acetylation. The experiment in a line: Tubulin acetylation in RPMI-8226 cells by quantitative Western blotting. Format: cell-based. For orientation: Immunoblotting shows a protein as a band on a membrane.
The next data set relates to histone H3 acetylation. Put plainly: Histone H3 (K9/K14) acetylation in RPMI-8226 cells by Western blotting. Conditions: 6 h, Western blot. It counts as cell-based.
[3] abbreviates: Homo sapiens, RPMI-8226, 6 h, read-out: IC50 tubulin deacetylation (relative tubulin acetylation), RPMI-8226 cells, 6 h, Western blot; called EC50 in text.

T1 sequence (Q13547 whole entry): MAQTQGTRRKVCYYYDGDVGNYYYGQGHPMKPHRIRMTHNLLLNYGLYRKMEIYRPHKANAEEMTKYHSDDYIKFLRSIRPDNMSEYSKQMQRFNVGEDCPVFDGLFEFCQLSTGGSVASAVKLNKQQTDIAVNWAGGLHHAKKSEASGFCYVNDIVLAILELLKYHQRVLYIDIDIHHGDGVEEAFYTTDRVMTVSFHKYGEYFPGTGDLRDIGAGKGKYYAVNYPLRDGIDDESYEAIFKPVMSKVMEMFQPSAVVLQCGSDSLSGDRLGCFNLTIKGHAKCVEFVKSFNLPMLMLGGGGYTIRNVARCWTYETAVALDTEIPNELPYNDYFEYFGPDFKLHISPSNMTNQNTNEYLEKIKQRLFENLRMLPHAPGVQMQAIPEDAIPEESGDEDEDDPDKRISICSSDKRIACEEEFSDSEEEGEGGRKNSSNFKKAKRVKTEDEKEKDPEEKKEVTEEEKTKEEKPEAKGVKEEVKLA
Chain of HDAC1-nanoLuc (Q13547 whole entry): as above

With `CS(=O)(=O)N(Cc1ccc(C(=O)NO)cn1)c1cccc(Cl)c1` [compound 6, 6-((N-(3-Chlorophenyl)methylsulfonamido)methyl)-N-hydroxynicotinamide], in “MTT viability assay”, the EC50 at 48 h came out at 0.998 µM. Also, the IC50 at HDAC1 [1] turned out to be 0.281 µM; at HDAC10 (purified human HDAC10, read-out: IC50 HDAC10), 0.0683 µM; at HDAC1 [2], 0.0492 µM; at HDAC6, 0.00035 µM. Moreover, the “SI (HD6/HD1) RHKK” value on HDAC1 [1] (ratio of IC50 HDAC1 (RHKK) divided by IC50 HDAC6) came to 803. In addition, the “SI (HD6/HD10)” value at HDAC10 (ratio of IC50 HDAC10 divided by IC50 HDAC6) is listed as 195. Also, at HDAC1 [2] (ratio of IC50 HDAC1 (GAK) divided by IC50 HDAC6), the “SI (HD6/HD1) GAK, in vitro” value was determined as 141.

In the case of `O=C(CCCCCCC(=O)Nc1ccc([C@H]2O[C@@H](CSc3nc(-c4ccccc4)c(-c4ccccc4)o3)C[C@@H](c3ccc(CO)cc3)O2)cc1)NO` [Tubacin], the EC50 on HDAC1-nanoLuc came out at 13.2 µM; with RPMI-8226 lymphoblasts, 6.5 µM; at HDAC1 [2] (Figure 2C, in vitro data (GAK) in μM) it was 0.1 µM. Besides, in “MTT viability assay”, the EC50 at 48 h worked out at 6.51 µM. Besides, the IC50 on HDAC1 [1] was found to be 15.1 µM; with tubulin acetylation (setting [3]) it was 1.71 µM; in the data set with tubulin acetylation (read-out: IC50 tubulin deacetylation (relative tubulin acetylation); RPMI-8226 cells, 6 h, Western blot; called EC50 in text), 1.7 µM; on HDAC1 [2] it was 0.102 µM.

With `CCCCN(Cc1ccc(C(=O)NO)cc1)C(=O)Nc1ccccc1` [Next A, Nexturastat A], the 50% effective concentration (EC50) at 48 h in the data set “MTT viability assay” is 2.81 µM. Also, the EC50 in the data set on RPMI-8226 lymphoblasts was found to be 2.8 µM. Also, the IC50 in the data set with tubulin acetylation (setting [3]) was found to be 0.249 µM.

Take `CC(/C=C/C(=O)NO)=C\[C@@H](C)C(=O)c1ccc(N(C)C)cc1` [TSA, Trichostatin A]: the EC50 at 48 h in “MTT viability assay” was 0.237 µM. In addition, the half-maximal effective concentration (EC50) in the data set on RPMI-8226 lymphoblasts is 0.24 µM. Besides, the IC50 in the data set with tubulin acetylation (Homo sapiens, RPMI-8226, 6 h, read-out: IC50 tubulin deacetylation (relative tubulin acetylation)) stood at 0.136 µM; with tubulin acetylation (Homo sapiens, RPMI-8226, 6 h, read-out: potency to inhibit tubulin deacetylation) it was 0.136 µM; in the data set on tubulin acetylation (read-out: IC50 tubulin deacetylation (relative tubulin acetylation)), 0.14 µM. The “effect on histone H3 (K9/K14) acetylation, class I HDAC inhibition” value in the data set on histone H3 acetylation was “the most potent class I HDAC inhibitors”.

For `CN1CCc2c(c3ccccc3n2Cc2ccc(C(=O)NO)cc2)C1` [Tub A, Tubastatin A], the EC50 at 48 h in the data set “MTT viability assay” was determined as 21.6 µM. The “effect on cell viability” value in the data set on RPMI-8226 lymphoblasts (MTT) is “less pronounced effects on cell viability at high inhibitor concentrations”. Also, the IC50 with tubulin acetylation (Homo sapiens, RPMI-8226, 6 h; read-out: IC50 tubulin deacetylation (relative tubulin acetylation)) is 0.985 µM.

With `O=C(CCCCCCNC(=O)c1cnc(N(c2ccccc2)c2ccccc2)nc1)NO` [ACY-1215, rocilinostat], in “MTT viability assay”, the EC50 at 48 h is 2.89 µM. For the same compound, the EC50 in the data set with RPMI-8226 lymphoblasts amounted to 2.9 µM. Also, the IC50 on HDAC10 was 0.0182 µM; in the data set on tubulin acetylation (setting [3]), 0.619 µM. In addition, in the data set with histone H3 acetylation, the “effect on histone H3 (K9/K14) acetylation, class I HDAC inhibition” value was “the most potent class I HDAC inhibitors”.

These data come from PMC10003107, “Selectivity of Hydroxamate- and Difluoromethyloxadiazole-Based Inhibitors of Histone Deacetylase 6 In Vitro and in Cells” (International Journal of Molecular Sciences, 2023).
